Test results published in paper PMC3608401 (FEBS letters, 2013).

T1: Clostridium phytofermentans Cphy3396 (clade 3) (Lachnoclostridium phytofermentans, UniProt A9KTB9)
T1 sequence (A9KTB9 1-466): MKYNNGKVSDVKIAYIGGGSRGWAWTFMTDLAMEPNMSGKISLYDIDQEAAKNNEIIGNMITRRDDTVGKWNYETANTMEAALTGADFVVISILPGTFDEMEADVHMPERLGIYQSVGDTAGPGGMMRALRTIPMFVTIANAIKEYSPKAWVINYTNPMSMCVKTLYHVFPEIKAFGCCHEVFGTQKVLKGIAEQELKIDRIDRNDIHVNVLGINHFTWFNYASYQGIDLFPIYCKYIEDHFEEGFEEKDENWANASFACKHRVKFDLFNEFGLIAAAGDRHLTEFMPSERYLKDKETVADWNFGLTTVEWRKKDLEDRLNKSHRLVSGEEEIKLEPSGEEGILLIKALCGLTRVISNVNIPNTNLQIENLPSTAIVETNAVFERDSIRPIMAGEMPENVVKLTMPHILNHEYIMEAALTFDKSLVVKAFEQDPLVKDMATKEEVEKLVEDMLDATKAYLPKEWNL

T2: protein from Thermoanaerobacter italicus (clade 1) (Thermoanaerobacter thermocopriae, UniProt D3T426)
T2 sequence (D3T426 1-453): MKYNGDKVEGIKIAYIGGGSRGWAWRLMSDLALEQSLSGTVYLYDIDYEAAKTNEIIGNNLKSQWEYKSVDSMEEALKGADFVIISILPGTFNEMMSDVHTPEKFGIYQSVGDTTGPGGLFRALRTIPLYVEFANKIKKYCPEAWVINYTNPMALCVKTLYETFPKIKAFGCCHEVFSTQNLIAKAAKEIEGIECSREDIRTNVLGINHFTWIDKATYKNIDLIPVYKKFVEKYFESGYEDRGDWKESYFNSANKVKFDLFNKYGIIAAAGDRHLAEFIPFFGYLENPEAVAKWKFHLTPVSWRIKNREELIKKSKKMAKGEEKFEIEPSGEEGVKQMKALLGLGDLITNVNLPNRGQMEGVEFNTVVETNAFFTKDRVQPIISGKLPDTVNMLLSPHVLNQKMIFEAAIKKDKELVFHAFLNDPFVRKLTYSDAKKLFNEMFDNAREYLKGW

B1: LplD (LplDhis6) (Bacillus subtilis subsp. subtilis str. 168) (protein)
chain: MFHISTLDQIKIAYIGGGSQGWARSLMSDLSIDERMSGTVALYDLDFEAAQKNEVIGNHSGNGRWRYEAVSTLKKALSAADIVIISILPGSLDDMEVDVHLPERCGIYQSVGDTVGPGGIIRGLRAVPIFAEIARAIRDYAPESWVINYTNPMSVCTRVLYKVFPGIKAIGCCHEVFGTQKLLAEMVTERLGIEVPRREDIRVNVLGINHFTWITKASYRHIDLLPIFREFSAHYGESGYELEGECWRDSVFCSAHRVAFDLFETYGAIPAAGDRHLAEFLPGPYLKQPEVWKFHLTPISFRKQDRAEKRQETERLIVQQRGVAEKASGEEGVNIIAALLGLGELVTNVNMPNQGQVLNLPIQAIVETNAFITRNRVQPILSGALPKGVEMLAARHISNQEAVADAGLTKDTGLAFQAFLNDPLVQIDRSDAEQLFNDMLQCIMQS

Experiments:
[1] = target: T1, Clostridium phytofermentans Cphy3396 (clade 3); assay: colorimetric assay of α-galacturonidase activity; assay type: biochemical; conditions: cofactors NAD+, Mn2+, DTT as for GH4 enzymes
[2] = target: T2, protein from Thermoanaerobacter italicus (clade 1); assay: colorimetric assay of α-galacturonidase activity; assay type: biochemical; conditions: cofactors NAD+, Mn2+, DTT as for GH4 enzymes
[3] = substrate: O=C(O)[C@H]1O[C@H](Oc2ccc([N+](=O)[O-])cc2)[C@H](O)[C@@H](O)[C@H]1O; assay: discontinuous colorimetric assay, p-nitrophenol release; assay type: biochemical, Bacillus subtilis; conditions: 25 mM Tris-HCl pH 7.5, 0.1 mM NAD+, 1 mM MnCl2, 5 mM DTT, ~35-38 °C

Molecule | colorimetric assay of α-galacturonidase activity [1] | colorimetric assay of α-galacturonidase activity [2] | Km [3] | kcat [3]
O=C(O)[C@H]1O[C@H](Oc2ccc([N+](=O)[O-])cc2)[C@H](O)[C@@H](O)[C@H]1O [pNPαGalUA] | pNPαGalUA served as substrate in all assays of protein activity | pNPαGalUA served as substrate in all assays of protein activity | – | –
B1 | – | – | 0.62 ± 0.11 µM | 3.6 s⁻¹
